Source: patent US8911723B2, “Hybrid hydrogel scaffold compositions and methods of use” (Escape Therapeutics, Inc., priority 2010, dated 2014)
Entries after “also recorded” stand apart in the source; their conditions may differ.

Key:
[1] = Rheology, temperature sweep of hydrogels (AR-G2 rheometer); type: physicochemical; conditions: for lost modulus G″ / storage modulus G′: 1% w/v in PBS
Procedure: The viscoelastic properties of 3 hydrogels were investigated with a, AR-G2 rheometer (TA Instruments, New Castle, Del.). The parameters of temperature sweep were set as follows: range 4-40° C., change rate 5° C./min, strain 2%; frequency 1 Hz. Three parameters were recorded: 1) storage modulus G′ estimates the elastic component of mechanical strength, 2) lost modulus G″ estimates the viscous component of mechanical strength, and 3) phase difference Delta indicates the elastic or viscous property of a material. Zero degree of Delta implies a purely elastic material, while a purely viscous material has a Delta of 90 degrees. This same method can be used to analyze the viscoelastic properties of any of the scaffolds/hydrogels of the invention.
To determine the mechanical properties of PO, EFK8, and EFK8-PO hydrogels, we performed rheological analyses. The viscoelastic behaviors of EFK8 (1% w/v in PBS), PO (20% w/v in PBS), and EFK8-PO (20% w/v PO plus 1% w/v EFK8, both in PBS) hydrogels are illustrated in FIG. 1. At 25° C., G′ of EFK8 hydrogel was ˜10.5 Pa and G″ was ˜6.2 Pa. […] Phase difference Delta increased from 30 degrees to 70 degrees (FIG. 1A). […] EFK8 hydrogel was very weak and less viscous both at room temperature and 37° C. […] FIG. 1C illustrates the viscoelastic behavior of EFK8-PO.

[2] = system: hAMSCs; experiment: hAMSC morphology and distribution (aggregation) after encapsulation in hydrogels; type: cell-based, human; conditions: hAMSCs encapsulated in hydrogel
Procedure: Cells were encapsulated in the appropriate hydrogel by gently mixing hAMSCs with PO, EFK8, or EFK8-PO at a final concentration of 1×10^6 cells/ml. When seeding hAMSCs in PO or EFK8-PO, hydrogels were kept on ice to prevent premature gelation. Fifty μL of the aliquot of hydrogel/cell mixture was quickly transferred into a 96-well microplate. Encapsulated hAMSCs were then incubated at 37° C. for 5 min to induce gel formation. One hundred μL of DMEM medium was then added into each well. Fresh medium was changed 3 times within the first 30 min in order to neutralize the acidic pH of the hydrogels, and then changed every other day during culture. After various treatments described below and at the appropriate time points, a 1000 μL pipette tip was cut at its distal end to facilitate our ability to gently draw up 50 μL of encapsulated hAMSCs from the top of the well. Cells were then gently placed onto a slide to allow for examination under light field microscopy. This process was repeated 3 times per well, allowing for assessment of a total of 3 different depth layers (top, middle, and bottom) of the encapsulated cell mixture. This method of encapsulation can generally be used for encapsulating most cell-types in the scaffolds described herein. […]

[3] = Cell viability of hydrogel-encapsulated hAMSCs (trypan blue); type: cell-based; conditions: human, hAMSCs encapsulated in EFK8 hydrogel, through 14 days of culture, read-out: hAMSC viability
Procedure: hAMSCs were encapsulated in PO, EFK8, or EFK8-PO and cultured in a 37° C. humidified 5% CO2 incubator for 3 hrs, 1, 3, 6, 10, or 14 days. Fifty μL of cells was then mixed with an equal volume of 1% trypan blue and observed under light microscopy. Trypsin-EDTA (0.25%) was used to separate cells when cell aggregation occurred. Viability was calculated as the percentage of living cells over total cells.

[4] = system: hAMSCs; experiment: WST-1 Cell Proliferation assay of encapsulated hAMSCs; type: cell-based, human; conditions: days 1-4 of culture
[5] = system: hAMSCs; experiment: In vitro adipogenic differentiation of encapsulated hAMSCs (Oil Red O); type: cell-based, human
Description: (§1) hAMSCs were encapsulated in PO, EFK8, and EFK8-PO as above. Adipogenic or osteogenic differentiation was induced by culturing cells in adipogenic or osteogenic differentiation medium (AD-medium or OS-medium, respectively, Cell Applications, San Diego, Calif.) for 7 days or 14 days, respectively, according to our previously published method, which is hereby incorporated by reference, Zhao L et al., “TGF-beta 1 Induces Osteogenic Differentiation of Murine Bone Marrow Stromal Cells,” Tissue Eng Part A 2009, In press. Fresh induction media was added to every other day.
Red oil staining was used to confirm hAMSC adipogenic differentiation. Cells were washed with PBS and fixed with 10% formalin for 20 min. Cells were then washed twice with PBS, once with 60% isopropyl alcohol, stained with Oil Red O solution (Sigma-Aldrich) for 15 min, washed with PBS once more, and then observed by light field microscopy, Hata K et al., “A CCAAT/enhancer binding protein beta isoform, liver-enriched inhibitory protein, regulates commitment of osteoblasts and adipocytes,” Mol Cell Biol, 2005, 25(5):1971-1979, which is hereby incorporated by reference.

[6] = system: hAMSCs; experiment: In vitro osteogenic differentiation of encapsulated hAMSCs (ALP, alizarin red S); type: cell-based, human; conditions: osteogenic differentiation medium, 14 days
Description: as §1
Alkaline Phosphatase (ALP) staining was used to detect mineralization in hAMSCs during osteogenic differentiation. After culturing encapsulated hAMSCs for 14 days in the various hydrogels, the medium was aspirated and cells were stained with StemTag ALP (Cell Biolabs, San Diego, Calif.) according to the manufacturer's protocol. Briefly, after washing twice with PBS, cells were exposed to fixing solution for 2 min, then washed again with PBS and incubated with StemTAG ALP staining solution for 30 min in the dark. ALP staining solution was aspirated and cells were then washed with PBS and observed under light microscopy. […]

[7] = system: hAMSCs; experiment: Cell surface marker expression of encapsulated hAMSCs (RT-PCR); type: cell-based, human; conditions: after 2 weeks of culture, data not shown
Description: hAMSCs were confirmed to meet the minimal criteria for defining multipotent MSCs according to previously described methods [Dominici et al., “Minimal criteria for defining multipotent mesenchymal stromal cells. The International Society for Cellular Therapy position statement,” Cytotherapy 2006; 8:315-7.]. First, hAMSCs were plastic-adherent when maintained in standard culture conditions using tissue culture flasks. […] Third, hAMSCs were able to differentiate to osteoblasts, adipocytes and chondroblasts under standard in vitro differentiating conditions.

[8] = system: hAMSCs in nude mice; experiment: In vivo adipogenic differentiation of hydrogel-encapsulated hAMSCs injected subcutaneously; conditions: subcutaneous dorsal neck, 30 days post-injection
Procedure: All mouse experiments were conducted in accordance with the Guide for the Care and Use of Laboratory Animals and were approved by each Institution's respective Administrative Panel on Laboratory Animal Care. hAMSCs were encapsulated in PO, EFK8, and EFK8-PO hydrogels at a final concentration of 1×10^6 cells/ml and mixed gently in the hydrogels. PO and EFK8-PO were kept on ice to prevent premature gelation during the seeding process. Two hundred μL of each encapsulation was injected subcutaneously using 1 ml syringes into the dorsal neck area of female nude mice (8 weeks of age). Two hundred μL of PBS was used as a control. The nude mice were then allowed to recover, and then returned to their cages. After 30 days, mice were sacrificed using CO2 euthanasia and dorsal neck skin harvested immediately. […]
Specimens were frozen sectioned using either vertical or horizontal slices 5-10 μm thick, then post-fixed in 100% cold acetone at −20° C., blocked for 1 hr with goat serum and then incubated with the appropriate mouse anti-human nuclei monoclonal primary antibody (Chemicon, Billerica, Mass.) at the desired dilution (1:50 to 1:250) overnight at 4° C. Signal was detected using the Vectastain ABC Elite Mouse/Rabbit/Goat IgG detection kit (Vector Laboratories, Burlingame, Calif.) following the manufacturer's protocol. […]

[9] = system: bleeding hand; experiment: Hemostatic agent test on a bleeding hand; conditions: in vivo
Procedure: In one embodiment, the scaffolds can be used as a hemostatic agent. […] When a bleeding hand was treated with EFK8-PO, bleeding stopped at one minute. When a bleeding hand was treated with PO alone, the hand was still bleeding at 10 minutes.

## Ac-KFEFKFEF-NH2 [EFK8, AcN-KFEFKFEF-CONH2]
[1]; 25° C.
  lost modulus G″: ~6.2 Pa
  storage modulus G′: ~10.5 Pa
[1]; 37° C.
  lost modulus G″: 5 Pa
  storage modulus G′: 2 Pa
[1]; end of the increase (37° C.)
  phase difference Delta: 70 degrees
[1]; start of the increase (25° C.)
  phase difference Delta: 30 degrees
[2]; 3 days of culture
  Aggregation Day 3: <3-5%
[2]; 10 days of culture
  Aggregation Day 10: ~10%
[3]
  viability: > 80%
[4]
  hAMSC proliferation (WST-1): significantly increased hAMSC proliferation rates; also recorded: promote cell proliferation
[5]; adipogenic differentiation medium, 4 days
  Adipogenic Oil-Red-O (% +) Day 4: 42±6%
[5]; adipogenic differentiation medium, 7 days
  Adipogenic Oil-Red-O (% +) Day 7: 68±8%
[5]; adipogenic or osteogenic induction medium
  differentiation of encapsulated hAMSCs on induction medium (in words): differentiated into adipocytes or osteoblasts
[6]
  Osteogenic AP (% +) Day 14: 88±9%
  Osteogenic Alizarin Red (% +) Day 14: 54±7%
[7]
  cell surface marker expression pattern: expressed CD73, CD90, and CD105 but were negative for CD14, CD19, CD34, CD45, and HLA class II
[8]
  new fat (adipose) tissue / hAMSC engraftment and adipogenic differentiation: did not observe new adipose tissue
[9]
  effectiveness as a hemostatic agent (in words): also effective as a hemostatic agent
